According to patent publication US20260297060A1, “COMPOUNDS FOR THE DEGRADATION OF MUTANT BRAF” (C4 THERAPEUTICS, INC., priority 2023, published 2026):
Read-outs that look alike come from different tables or passages of the source.

How the values were obtained:
[1] = system: A375-NRAS^Q61K cells; assay: CTGlo Cell Viability Assay, A375-NRAS^Q61K (A375.11) cells, 96 hours; assay type: cell-based, human; conditions: A375.11 (A375-NRAS^Q61K) cells
Outline: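 Viability as CellTiter-Glo ATP luminescence after 96 h compound exposure at 37 °C; A375.11 (BRAF V600E/NRAS Q61K) cells at 250/well, top final concentration 10 μM in half-log steps. Signal was background-corrected and set relative to DMSO controls. A 4-parameter logistic fit gave GI50 (50% crossing) and Emax.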

[2] = target: T1, BRAF V600E (Homo sapiens, UniProt P15056+Q96SW2, V600E); assay: BRAF V600E HiBiT Degradation Assay; assay type: cell-based
T1 construct: knock-in of the HiBiT tag to the endogenous BRAF V600E locus; host or cells: A375.10 (A375 clonal line, CRISPR HiBiT knock-in at the endogenous BRAF V600E locus)
T1 sequence (P15056 whole entry V600E): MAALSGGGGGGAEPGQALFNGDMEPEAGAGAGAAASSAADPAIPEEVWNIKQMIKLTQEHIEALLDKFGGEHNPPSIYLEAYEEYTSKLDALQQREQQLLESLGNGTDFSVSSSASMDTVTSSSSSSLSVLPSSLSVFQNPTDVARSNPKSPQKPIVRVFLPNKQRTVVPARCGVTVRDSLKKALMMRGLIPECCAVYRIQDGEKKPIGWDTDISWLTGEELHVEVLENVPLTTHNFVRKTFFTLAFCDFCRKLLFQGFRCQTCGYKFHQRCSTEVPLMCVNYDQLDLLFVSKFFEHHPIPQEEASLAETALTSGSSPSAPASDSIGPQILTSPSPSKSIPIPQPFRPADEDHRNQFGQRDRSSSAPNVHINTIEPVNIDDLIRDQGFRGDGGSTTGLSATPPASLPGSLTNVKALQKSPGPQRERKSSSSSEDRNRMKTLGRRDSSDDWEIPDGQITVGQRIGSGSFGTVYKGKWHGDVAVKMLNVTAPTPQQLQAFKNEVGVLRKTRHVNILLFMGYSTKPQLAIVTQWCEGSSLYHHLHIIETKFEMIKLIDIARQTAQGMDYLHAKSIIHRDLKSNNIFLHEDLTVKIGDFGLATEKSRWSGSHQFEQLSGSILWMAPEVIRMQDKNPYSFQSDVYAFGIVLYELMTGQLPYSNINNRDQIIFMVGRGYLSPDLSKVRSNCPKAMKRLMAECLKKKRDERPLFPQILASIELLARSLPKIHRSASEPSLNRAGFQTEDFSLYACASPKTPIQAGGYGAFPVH
T1 sequence (Q96SW2 whole entry): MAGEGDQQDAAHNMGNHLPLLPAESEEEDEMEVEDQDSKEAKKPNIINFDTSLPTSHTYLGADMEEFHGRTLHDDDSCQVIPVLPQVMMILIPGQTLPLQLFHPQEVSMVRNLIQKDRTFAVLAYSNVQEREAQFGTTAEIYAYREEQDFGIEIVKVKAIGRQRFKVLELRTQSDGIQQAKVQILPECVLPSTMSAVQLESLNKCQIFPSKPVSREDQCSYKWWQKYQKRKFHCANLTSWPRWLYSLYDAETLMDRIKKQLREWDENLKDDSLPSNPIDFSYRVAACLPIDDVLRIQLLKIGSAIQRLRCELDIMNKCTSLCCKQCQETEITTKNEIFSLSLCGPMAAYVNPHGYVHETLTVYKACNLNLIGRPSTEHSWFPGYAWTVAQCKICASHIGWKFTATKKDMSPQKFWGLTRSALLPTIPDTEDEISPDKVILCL
T1 sequence (Q16531 whole entry partner): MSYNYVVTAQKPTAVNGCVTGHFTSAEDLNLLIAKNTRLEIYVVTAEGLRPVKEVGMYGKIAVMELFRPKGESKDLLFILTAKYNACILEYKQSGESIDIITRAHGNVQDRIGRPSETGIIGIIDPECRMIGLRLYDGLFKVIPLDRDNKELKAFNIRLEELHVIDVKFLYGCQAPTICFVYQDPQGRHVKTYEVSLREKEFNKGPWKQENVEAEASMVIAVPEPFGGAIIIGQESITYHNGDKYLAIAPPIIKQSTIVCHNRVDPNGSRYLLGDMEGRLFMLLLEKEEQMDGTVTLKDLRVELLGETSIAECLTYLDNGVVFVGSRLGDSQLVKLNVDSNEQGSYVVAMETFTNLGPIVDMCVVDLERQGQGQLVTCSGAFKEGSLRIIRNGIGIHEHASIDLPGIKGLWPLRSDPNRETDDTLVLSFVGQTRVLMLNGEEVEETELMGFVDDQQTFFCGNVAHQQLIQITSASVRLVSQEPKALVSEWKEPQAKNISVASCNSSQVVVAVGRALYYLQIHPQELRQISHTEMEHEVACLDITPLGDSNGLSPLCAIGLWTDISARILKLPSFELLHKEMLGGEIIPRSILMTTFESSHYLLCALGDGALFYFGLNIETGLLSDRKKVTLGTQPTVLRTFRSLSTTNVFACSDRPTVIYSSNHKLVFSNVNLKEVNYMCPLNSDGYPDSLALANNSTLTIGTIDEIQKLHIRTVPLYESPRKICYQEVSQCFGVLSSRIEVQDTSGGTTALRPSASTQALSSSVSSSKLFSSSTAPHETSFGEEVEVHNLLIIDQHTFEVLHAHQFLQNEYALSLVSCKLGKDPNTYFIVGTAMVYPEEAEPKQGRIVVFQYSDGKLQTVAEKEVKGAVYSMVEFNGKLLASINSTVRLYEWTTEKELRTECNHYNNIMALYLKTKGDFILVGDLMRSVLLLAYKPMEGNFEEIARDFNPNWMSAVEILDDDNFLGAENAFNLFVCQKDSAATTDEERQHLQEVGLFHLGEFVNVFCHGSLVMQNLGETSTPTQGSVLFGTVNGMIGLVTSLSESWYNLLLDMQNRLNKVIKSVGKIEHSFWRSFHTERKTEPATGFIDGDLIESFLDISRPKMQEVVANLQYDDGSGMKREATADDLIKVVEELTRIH
Outline: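 Endogenous HiBiT knock-in on BRAF V600E in A375 cells (clone A375.10); 11-point half-log series, top 10 μM, 2, 6 or 24 h at 37° C. Lytic HiBiT luminescence, background-subtracted, normalized to DMSO; 4-parameter fit gives DC50, Emax (residual protein) and IP (inflection point).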

[3] = A375.10 cells, BRAF V600E, 2 hours, inflection point, read-out: HiBiT-Degradation A375.10 BRAF 2 hours IP
[4] = A375.10 cells, BRAF V600E, 2 hours, read-out: HiBiT-Degradation A375.10 BRAF 2 hours DC50
[5] = A375.10 cells, BRAF V600E, 2 hours, residual protein remaining
[6] = A375.10 cells, BRAF V600E, 6 hours, inflection point, read-out: HiBiT-Degradation A375.10 BRAF 6 hours IP
[7] = A375.10 cells, BRAF V600E, 6 hours, read-out: HiBiT-Degradation A375.10 BRAF 6 hours DC50
[8] = A375.10 cells, BRAF V600E, 6 hours, residual protein remaining
[9] = A375.10 cells, HiBiT, BRAF V600E, 24 hours
[10] = A375.10 cells, HiBiT, BRAF V600E, 24 hours, read-out: HiBiT-Degradation A375.10 BRAF 24 hours DC50
[11] = A375.10 cells, HiBiT, BRAF V600E, 24 hours, read-out: HiBiT-Degradation A375.10 BRAF 24 hours IP

| SMILES | GI50 [1] [µM] | CTGlo A375.11 96 hours Emax ([1]; lowest % viability achieved) | HiBiT-Degradation A375.10 BRAF 2 hours Emax [2] | DC50 [2, 3] [µM] | DC50 [2, 4] [µM] | HiBiT-Degradation A375.10 BRAF 2 hours Emax [2, 5] | DC50 [2, 6] [µM] | DC50 [2, 7] [µM] | HiBiT-Degradation A375.10 BRAF 6 hours Emax [2, 8] | HiBiT-Degradation A375.10 BRAF 24 hours Emax [2, 9] | DC50 [2, 10] [µM] | DC50 [2, 11] [µM] | Emax ([1]; Homo sapiens, 96 h, lowest % viability achieved) [%] | Emax ([2]; A375.10 cells, BRAF V600E, 2 hours, residual protein remaining, read-out: HiBiT-Degradation A375.10 BRAF 2 hours Emax) [%] | Emax ([2]; A375.10 cells, BRAF V600E, 6 hours, residual protein remaining, read-out: HiBiT-Degradation A375.10 BRAF 6 hours Emax) [%] | Emax ([2]; A375.10 cells, HiBiT, BRAF V600E, 24 hours, read-out: HiBiT-Degradation A375.10 BRAF 24 hours Emax) [%] |
| --- | --- | --- | --- | --- | --- | --- | --- | --- | --- | --- | --- | --- | --- | --- | --- | --- |
| CCN(C)S(=O)(=O)Nc1ccc(F)c(Oc2ccc3ncc([C@@H]4COC5(CCN(C6CCC(c7ccc(NC8CCC(=O)NC8=O)cc7F)CC6)CC5)C4)nc3c2)c1C#N (single isomer, unassigned) [Compound 61] | > 10 | ** (<90% and >50%) | ** (<90% and >50%) | < 1 | 1 to 10 | – | – | – | – | – | – | – | – | – | – | – |
| CCN(C)S(=O)(=O)Nc1ccc(F)c(Oc2ccc3ncn([C@H]4COC5(CCN(C6CC(c7ccc(NC8CCC(=O)NC8=O)cc7F)C6)CC5)C4)c(=O)c3c2)c1C#N (single isomer, unassigned) [Compound 63] | < 1 | *** (<=50%) | – | < 1 | < 1 | *** (<=50%) | < 1 | < 1 | *** (<=50%) | *** (<=50%) | < 1 | < 1 | – | – | – | – |
| CCN(C)S(=O)(=O)Nc1ccc(F)c(Nc2ccc3ncn([C@H]4COC5(CCN(C6CCC(c7cc8c(cc7F)c(N7CCC(=O)NC7=O)nn8C)CC6)CC5)C4)c(=O)c3c2)c1C#N (single isomer, unassigned) [Compound 65] | > 10 | ** (<90% and >50%) | – | < 1 | 1 to 10 | ** (<90% and >50%) | – | – | – | – | – | – | – | – | – | – |
| CCN(C)S(=O)(=O)Nc1ccc(F)c(Nc2ccc3ncn([C@@H]4COC5(CCN(C6CCC(c7cc8c(cc7F)c(N7CCC(=O)NC7=O)nn8C)CC6)CC5)C4)c(=O)c3c2F)c1C#N (single isomer, unassigned) [Compound 68] | > 10 | – | – | < 1 | < 1 | – | – | – | – | – | – | – | < 50 | < 50 | – | – |
| CCN(C)S(=O)(=O)Nc1ccc(F)c(Nc2ccc3ncn([C@@H]4COC5(CCN(C6CCC(c7cc8c(cc7F)c(N7CCC(=O)NC7=O)nn8C)CC6)CC5)C4)c(=O)c3c2F)c1C#N (single isomer, unassigned) [Compound 69] | < 1 | *** (<=50%) | – | < 1 | < 1 | *** (<=50%) | < 1 | < 1 | – | – | < 1 | < 1 | – | – | < 50 | < 50 |
| CN(CCO)S(=O)(=O)Nc1ccc(F)c(Oc2ccc3ncn(C4CC5(CCN(C6CCC(c7ccc(NC8CCC(=O)NC8=O)cc7F)CC6)CC5)C4)c(=O)c3c2)c1C#N (single isomer, unassigned) [Compound 80, 6-[2-cyano-6-fluoro-3-[[2-hydroxyethyl(methyl)sulfamoyl]amino]phenoxy]-3-[7-[4-[4-[(2,6-dioxo-3-piperidyl)amino]-2-fluoro-phenyl]cyclohexyl]-7-azaspiro[3.5]nonan-2-yl]-4-oxo-quinazoline] | > 10 | ** (<90% and >50%) | – | < 1 | > 10 | ** (<90% and >50%) | – | – | – | – | – | – | – | – | – | – |
| CN(CCO)S(=O)(=O)Nc1ccc(F)c(Oc2ccc3ncn(C4CC5(CCN(C6CCC(c7cc8c(cc7F)c(N7CCC(=O)NC7=O)nn8C)CC6)CC5)C4)c(=O)c3c2)c1C#N (single isomer, unassigned) [Compound 82, 6-[2-cyano-6-fluoro-3-[[2-hydroxyethyl(methyl)sulfamoyl]amino]phenoxy]-3-[7-[4-[3-(2,4-dioxohexahydropyrimidin-1-yl)-5-fluoro-1-methyl-indazol-6-yl]cyclohexyl]-7-azaspiro[3.5]nonan-2-yl]-4-oxo-quinazoline] | 1 to 10 | ** (<90% and >50%) | – | < 1 | 1 to 10 | ** (<90% and >50%) | < 1 | < 1 | *** (<=50%) | *** (<=50%) | < 1 | < 1 | – | – | – | – |
| CCN(C)S(=O)(=O)Nc1ccc(F)c(Oc2ccc3ncn(C4CC5(CCN(C6CCC(c7cc8c(cc7F)c(N7CCC(=O)NC7=O)nn8C)CC6F)CC5)C4)c(=O)c3c2)c1C#N (single isomer, unassigned) [Compound 84, 6-[2-cyano-3-[[ethyl(methyl)sulfamoyl]amino]-6-fluoro-phenoxy]-3-[7-[4-[3-(2,4-dioxohexahydropyrimidin-1-yl)-5-fluoro-1-methyl-indazol-6-yl]-2-fluoro-cyclohexyl]-7-azaspiro[3.5]nonan-2-yl]-4-oxo-quinazoline] | 1 to 10 | ** (<90% and >50%) | *** (<=50%) | < 1 | < 1 | – | < 1 | < 1 | *** (<=50%) | *** (<=50%) | < 1 | < 1 | – | – | – | – |
| Cn1nc(N2CCC(=O)NC2=O)c2cc(F)c(C3CCC(N4CCC5(CC4)CC(n4cnc6ccc(Oc7c(F)ccc(NS(=O)(=O)C8CCCC8)c7C#N)cc6c4=O)C5)CC3)cc21 (single isomer, unassigned) [Compound 94, N-[2-cyano-3-[3-[7-[4-[3-(2,4-dioxohexahydropyrimidin-1-yl)-5-fluoro-1-methyl-indazol-6-yl]cyclohexyl]-7-azaspiro[3.5]nonan-2-yl]-4-oxo-quinazolin-6-yl]oxy-4-fluoro-phenyl]cyclopentanesulfonamide] | < 1 | *** (<=50%) | *** (<=50%) | < 1 | < 1 | – | < 1 | < 1 | *** (<=50%) | *** (<=50%) | < 1 | < 1 | – | – | – | – |
| CC(C)S(=O)(=O)Nc1ccc(F)c(Oc2ccc3ncn(C4CC5(CCN(C6CCC(c7cc8c(cc7F)c(N7CCC(=O)NC7=O)nn8C)CC6)CC5)C4)c(=O)c3c2)c1C#N (single isomer, unassigned) [Compound 96, N-[2-cyano-3-[3-[7-[4-[3-(2,4-dioxohexahydropyrimidin-1-yl)-5-fluoro-1-methyl-indazol-6-yl]cyclohexyl]-7-azaspiro[3.5]nonan-2-yl]-4-oxo-quinazolin-6-yl]oxy-4-fluoro-phenyl]propane-2-sulfonamide] | < 1 | – | – | < 1 | < 1 | *** (<=50%) | < 1 | < 1 | *** (<=50%) | *** (<=50%) | < 1 | < 1 | – | – | – | – |
